Laboratory results from patent US8546414B2, “Ion channel modulators and methods of use” (Vertex Pharmaceuticals Incorporated, priority 2004, dated 2013).

Assays:
Type in all cases: cell-based
[1] = biological target: T1, NaV1.3 (Homo sapiens, UniProt Q9NY46); test: VIPR optical membrane potential assay with electrical stimulation, NaV1.3; settings: Table 9, NaV 1.3 receptors
T1 construct: expressed in transfected cells; host or cells: HEK293
Method in brief: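 HEK293 cells stably expressing NaV1.3, stained with CC2-DMPE (10 μM final) then DiSBAC2(3) with ABSC1, 30 min each at RT; compounds added with oxonol. Electrical stimulation for 3 s; 460/580 nm background-subtracted emission ratio Rf/Ri, normalised to tetracaine (positive) and untreated (negative) controls.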

[2] = biological target: T2, CaV2.2 (Homo sapiens, UniProt Q00975); test: VIPR optical membrane potential assay with electrical stimulation, CaV2.2; settings: Table 9, CaV 2.2 receptors
T2 construct: expressed in transfected cells; host or cells: HEK293
Method in brief: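 HEK293 cells stably expressing CaV2.2 stained with CC2-DMPE/DiSBAC2(3) voltage-sensitive dyes (10 μM final CC2-DMPE, 30 min, RT), then compound added and cells electrically stimulated for 3-5 s. Read-out: background-subtracted 460/580 nm emission ratio; response R=Rf/Ri (post- vs pre-stimulus ratio); antagonism seen as reduced response.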

[3] = biological target: NaV1.8 (Homo sapiens, UniProt Q9Y5Y9); test: VIPR optical membrane potential assay, NaV1.8 (other subtypes in an analogous mode); settings: Table 9, NaV 1.8 receptors
Method in brief: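 Cells expressing the NaV subtype stained with coumarin and DiSBAC2(3) membrane-potential dyes, then incubated with test compound for 20-30 minutes. Depolarization evoked by sodium addback and read optically on VIPR; block measured as reduced membrane-potential response, with tetracaine as positive control.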

Sequence of NaV1.8 (Q9Y5Y9 whole entry): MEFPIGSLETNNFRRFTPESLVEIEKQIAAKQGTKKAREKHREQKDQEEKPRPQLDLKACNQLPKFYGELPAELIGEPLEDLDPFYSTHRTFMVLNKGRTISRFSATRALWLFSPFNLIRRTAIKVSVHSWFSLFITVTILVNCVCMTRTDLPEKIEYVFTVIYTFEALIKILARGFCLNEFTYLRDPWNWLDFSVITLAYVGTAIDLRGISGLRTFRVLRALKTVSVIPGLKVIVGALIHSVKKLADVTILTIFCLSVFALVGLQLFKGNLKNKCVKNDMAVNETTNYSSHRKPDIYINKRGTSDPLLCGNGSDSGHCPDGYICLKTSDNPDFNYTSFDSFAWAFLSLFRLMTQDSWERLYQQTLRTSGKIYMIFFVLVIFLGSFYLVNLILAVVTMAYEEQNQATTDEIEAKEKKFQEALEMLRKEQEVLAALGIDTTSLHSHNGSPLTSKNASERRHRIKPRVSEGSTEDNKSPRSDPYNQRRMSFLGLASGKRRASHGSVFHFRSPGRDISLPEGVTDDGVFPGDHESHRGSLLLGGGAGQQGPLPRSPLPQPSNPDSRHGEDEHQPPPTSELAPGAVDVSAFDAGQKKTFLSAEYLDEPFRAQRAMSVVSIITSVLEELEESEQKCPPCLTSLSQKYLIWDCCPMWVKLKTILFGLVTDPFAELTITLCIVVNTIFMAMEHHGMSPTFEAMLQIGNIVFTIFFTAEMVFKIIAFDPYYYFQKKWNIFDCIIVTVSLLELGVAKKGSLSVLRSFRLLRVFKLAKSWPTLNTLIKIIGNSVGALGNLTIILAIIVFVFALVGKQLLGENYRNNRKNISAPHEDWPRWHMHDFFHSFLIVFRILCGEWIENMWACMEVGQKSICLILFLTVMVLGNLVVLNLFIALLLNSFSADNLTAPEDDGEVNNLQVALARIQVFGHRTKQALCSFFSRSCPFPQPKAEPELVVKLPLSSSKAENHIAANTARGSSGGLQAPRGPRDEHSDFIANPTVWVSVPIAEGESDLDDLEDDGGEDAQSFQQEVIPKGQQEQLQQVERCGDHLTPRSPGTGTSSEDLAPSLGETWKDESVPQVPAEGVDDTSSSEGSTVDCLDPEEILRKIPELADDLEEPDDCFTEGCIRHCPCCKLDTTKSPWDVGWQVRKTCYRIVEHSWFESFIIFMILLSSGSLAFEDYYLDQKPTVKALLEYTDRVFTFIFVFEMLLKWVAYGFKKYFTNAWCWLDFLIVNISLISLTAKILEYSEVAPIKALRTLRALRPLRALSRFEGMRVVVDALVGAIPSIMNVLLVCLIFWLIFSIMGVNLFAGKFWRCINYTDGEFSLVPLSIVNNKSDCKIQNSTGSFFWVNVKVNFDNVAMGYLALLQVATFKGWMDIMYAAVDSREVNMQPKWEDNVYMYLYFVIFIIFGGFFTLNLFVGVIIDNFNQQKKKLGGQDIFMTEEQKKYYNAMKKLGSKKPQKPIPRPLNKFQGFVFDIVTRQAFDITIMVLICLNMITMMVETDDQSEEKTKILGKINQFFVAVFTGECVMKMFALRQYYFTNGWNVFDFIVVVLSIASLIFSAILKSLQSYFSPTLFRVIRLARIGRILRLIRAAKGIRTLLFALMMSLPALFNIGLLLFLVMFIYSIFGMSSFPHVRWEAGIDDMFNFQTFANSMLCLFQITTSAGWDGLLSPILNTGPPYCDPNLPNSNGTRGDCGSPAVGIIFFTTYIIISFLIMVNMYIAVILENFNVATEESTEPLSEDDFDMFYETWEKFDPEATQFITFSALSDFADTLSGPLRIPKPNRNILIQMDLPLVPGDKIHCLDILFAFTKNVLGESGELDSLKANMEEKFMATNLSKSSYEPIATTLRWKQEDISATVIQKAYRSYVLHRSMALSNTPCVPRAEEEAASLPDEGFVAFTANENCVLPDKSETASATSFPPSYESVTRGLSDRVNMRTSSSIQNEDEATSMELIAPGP
T1 sequence (Q9NY46 whole entry): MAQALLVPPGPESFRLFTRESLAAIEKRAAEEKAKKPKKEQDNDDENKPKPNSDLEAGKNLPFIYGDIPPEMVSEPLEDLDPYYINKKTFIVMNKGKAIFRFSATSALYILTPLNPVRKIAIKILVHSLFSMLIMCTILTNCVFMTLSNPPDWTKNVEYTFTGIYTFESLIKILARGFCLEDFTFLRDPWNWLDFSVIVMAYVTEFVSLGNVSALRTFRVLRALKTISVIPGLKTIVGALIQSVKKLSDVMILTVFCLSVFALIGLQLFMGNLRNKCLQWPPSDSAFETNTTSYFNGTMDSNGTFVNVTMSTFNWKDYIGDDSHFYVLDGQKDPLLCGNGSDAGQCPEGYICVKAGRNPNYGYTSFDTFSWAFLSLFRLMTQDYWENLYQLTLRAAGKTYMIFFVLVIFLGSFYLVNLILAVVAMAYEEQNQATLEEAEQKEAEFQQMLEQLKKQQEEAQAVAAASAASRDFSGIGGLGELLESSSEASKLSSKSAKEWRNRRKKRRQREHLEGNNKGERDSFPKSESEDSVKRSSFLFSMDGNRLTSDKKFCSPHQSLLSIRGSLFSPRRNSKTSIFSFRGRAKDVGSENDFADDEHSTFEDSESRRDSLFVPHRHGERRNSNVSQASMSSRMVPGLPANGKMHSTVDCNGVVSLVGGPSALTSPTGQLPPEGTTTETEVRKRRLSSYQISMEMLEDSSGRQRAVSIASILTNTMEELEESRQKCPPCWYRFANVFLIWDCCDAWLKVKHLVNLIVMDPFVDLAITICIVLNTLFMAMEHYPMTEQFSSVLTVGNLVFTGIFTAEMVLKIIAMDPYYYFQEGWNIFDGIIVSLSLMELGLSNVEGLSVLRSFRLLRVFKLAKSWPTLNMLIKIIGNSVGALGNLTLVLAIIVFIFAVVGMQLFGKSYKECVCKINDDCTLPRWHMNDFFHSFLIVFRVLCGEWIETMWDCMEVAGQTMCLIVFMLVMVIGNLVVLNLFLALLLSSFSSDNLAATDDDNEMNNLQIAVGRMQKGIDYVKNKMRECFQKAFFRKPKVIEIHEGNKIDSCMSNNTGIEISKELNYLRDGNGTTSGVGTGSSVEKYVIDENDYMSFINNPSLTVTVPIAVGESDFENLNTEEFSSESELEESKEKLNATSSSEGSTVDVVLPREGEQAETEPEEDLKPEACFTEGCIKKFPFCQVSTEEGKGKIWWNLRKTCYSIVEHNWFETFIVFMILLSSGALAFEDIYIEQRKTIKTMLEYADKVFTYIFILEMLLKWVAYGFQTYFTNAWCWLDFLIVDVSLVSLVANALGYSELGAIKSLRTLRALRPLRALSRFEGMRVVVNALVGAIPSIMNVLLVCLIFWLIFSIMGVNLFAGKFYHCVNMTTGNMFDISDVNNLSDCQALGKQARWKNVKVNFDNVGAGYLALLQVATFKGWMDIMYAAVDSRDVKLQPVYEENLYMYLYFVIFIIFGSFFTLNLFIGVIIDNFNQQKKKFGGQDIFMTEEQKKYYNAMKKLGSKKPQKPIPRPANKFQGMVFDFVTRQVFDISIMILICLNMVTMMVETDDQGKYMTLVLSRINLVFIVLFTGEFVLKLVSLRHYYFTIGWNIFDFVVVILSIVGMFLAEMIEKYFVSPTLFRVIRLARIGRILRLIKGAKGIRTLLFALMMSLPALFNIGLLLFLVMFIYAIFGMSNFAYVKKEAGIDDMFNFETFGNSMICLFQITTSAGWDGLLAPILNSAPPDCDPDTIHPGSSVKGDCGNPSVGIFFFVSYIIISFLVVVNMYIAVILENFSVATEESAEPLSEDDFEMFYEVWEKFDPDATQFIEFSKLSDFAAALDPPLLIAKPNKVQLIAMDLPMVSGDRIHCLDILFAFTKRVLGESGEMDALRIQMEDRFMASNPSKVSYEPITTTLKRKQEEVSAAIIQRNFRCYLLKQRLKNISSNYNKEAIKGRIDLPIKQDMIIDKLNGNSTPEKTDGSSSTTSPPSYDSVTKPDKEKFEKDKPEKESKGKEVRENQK

| Structure (SMILES) | IC50 [1] [µM] | IC50 [2] [µM] | IC50 [3] [µM] |
| --- | --- | --- | --- |
| COc1cccc(CN(C(=O)c2cnc(N3CCOCC3)nc2-c2ccccc2F)C2CC2)c1 [compound 56] | > 10 | 2 to 10 | > 10 |
| COc1cccc(N(C(=O)c2cnc(N3CCCCC3)nc2-c2ccccc2Cl)C2CCOCC2)c1 [compound 203] | > 10 | > 10 | > 10 |
| CC(C)N(C(=O)c1cnc(N2CCOCC2)nc1-c1ccccc1F)c1cccc(C#N)c1 [compound 202] | > 10 | > 10 | > 10 |
| CC(C)N(C(=O)c1cnc(N2CCCCC2)nc1-c1ccccc1F)C1CCSC1 (stereo not drawn) [compound 149] | > 10 | > 10 | > 10 |
| O=C(NC(CN1CCCC1)c1ccccc1)c1cnc(N2CCOCC2)nc1-c1ccccc1F (stereo not drawn) [compound 37] | > 10 | > 10 | > 10 |
| CC(C)N(Cc1ccccc1)C(=O)c1cnc(N2CCOCC2)nc1-c1cccc(/C=C/C(=O)O)c1 [compound 17] | > 10 | > 10 | > 10 |
| COc1cc2c(cc1OC)CN(C(=O)c1cnc(N3CCOCC3)nc1-c1ccccc1F)CC2 [compound 144] | > 10 | > 10 | > 10 |
| O=C(NC1CCC1)c1cnc(N2CCOCC2)nc1-c1ccccc1F [compound 174] | > 10 | > 10 | > 10 |
| CC(C)N(C(=O)c1cnc(N2CCOCC2)nc1-c1ccccc1F)c1ccccc1 [compound 88] | > 10 | 2 to 10 | > 10 |
| CN1CCN(c2ncc(C(=O)N(Cc3ccccc3)C3CCCCC3)c(-c3ccccc3F)n2)CC1 [compound 147] | > 10 | 2 to 10 | > 10 |
| COc1ccc(CN(C(=O)c2cnc(N3CCC4CCCCC4C3)nc2-c2ccccc2F)C2CC2)cc1 (stereo not drawn) [compound 184] | > 10 | 2 to 10 | > 10 |
| CC(C)N(C(=O)c1cnc(N2CCCCC2)nc1-c1ccccc1F)c1cccc2ccccc12 [compound 112] | 2 to 10 | > 10 | > 10 |
| CC(C)N(Cc1ccccc1)C(=O)c1cnc(Nc2nc3ccccc3[nH]2)nc1-c1ccccc1F [compound 106] | > 10 | > 10 | > 10 |
| CN1CCN(c2ncc(C(=O)N(Cc3ccc(C(C)(C)C)cc3)C3CC3)c(-c3ccccc3F)n2)CC1 [compound 176] | > 10 | 2 to 10 | > 10 |
| Cc1nc(N2CCOCC2)nc(-c2ccccc2F)c1C(=O)N(Cc1ccccc1)C(C)C [compound 13] | > 10 | 2 to 10 | > 10 |
| Cc1ccc(Nc2ncc(C(=O)N(Cc3ccccc3)C(C)C)c(-c3ccccc3F)n2)cc1 [compound 63] | > 10 | > 10 | > 10 |
| Cc1nc(N2CCCCC2)nc(-c2ccccc2F)c1C(=O)N(Cc1ccc2c(c1)CCO2)C1CC1 [compound 192] | > 10 | > 10 | > 10 |
| CC1Cc2ccccc2N1C(=O)c1cnc(N2CCOCC2)nc1-c1ccccc1F (stereo not drawn) [compound 150] | > 10 | > 10 | > 10 |
| CC(C)N(Cc1ccccc1)C(=O)c1cnc(N2CCOCC2)nc1-c1ccc(F)c(F)c1 [compound 16] | > 10 | > 10 | > 10 |
| COc1cccc(N(C(=O)c2cnc(N3CCCCC3)nc2-c2ccccc2F)C2CCOCC2)c1 [compound 35] | > 10 | > 10 | > 10 |
| CC(C)N(Cc1ccc(N2CCCC2)cc1)C(=O)c1cnc(N2CCCCC2)nc1-c1ccccc1F [compound 50] | > 10 | 2 to 10 | > 10 |
| O=C(c1cnc(N2CCSCC2)nc1-c1ccccc1F)N(Cc1cccc(-c2ccncc2)c1)C1CC1 [compound 204] | 2 to 10 | 2 to 10 | > 10 |
| CC(C)N(Cc1ccc(C(C)(C)C)cc1)C(=O)c1cnc(N2CCCCC2)nc1-c1ccccc1F [compound 122] | > 10 | 2 to 10 | > 10 |

Now from value to compound:

| IC50 [1] [µM] | IC50 [2] [µM] | IC50 [3] [µM] | Structure (SMILES) |
| --- | --- | --- | --- |
| 2 to 10 | < 2 | 2 to 10 | COc1cccc(CN(C(=O)c2cnc(N3CCCCC3)nc2-c2ccccc2F)C(C)C)c1 [compound 20, 4-(2-fluorophenyl)-N-isopropyl-N-(3-methoxybenzyl)-2-(piperidin-1-yl)pyrimidine-5-carboxamide] |
| 2 to 10 | < 2 | 2 to 10 | CC(C)N(Cc1ccc(C(C)(C)C)cc1)C(=O)c1cnc(N2CCSCC2)nc1-c1ccccc1F [compound 59] |
| 2 to 10 | 2 to 10 | > 10 | CC(C)N(C(=O)c1cnc(N2CCSCC2)nc1-c1ccccc1F)c1ccccc1 [compound 201] |
| 2 to 10 | < 2 | 2 to 10 | COc1cccc(CN(C(=O)c2cnc(N3CCSCC3)nc2-c2ccccc2F)C(C)C)c1 [compound 131] |
| 2 to 10 | 2 to 10 | > 10 | O=C(c1cnc(N2CCOCC2)nc1-c1ccccc1F)N(Cc1ccccc1)C1CC1 [compound 100] |
| 2 to 10 | > 10 | 2 to 10 | COc1ccccc1C1CCN(C(=O)c2cnc(N3CCOCC3)nc2-c2ccccc2F)CC1 [compound 44] |
| 2 to 10 | 2 to 10 | > 10 | O=C(c1cnc(N2CCCCC2)nc1-c1ccccc1F)N(Cc1ccccc1)C1CCCC1 [compound 136] |
| 2 to 10 | > 10 | > 10 | COc1cccc(N(C(=O)c2c(C)nc(N3CCCCC3)nc2-c2ccccc2F)C(C)C)c1 [compound 104] |
| 2 to 10 | 2 to 10 | 2 to 10 | O=C(c1cnc(N2CCCCC2)nc1-c1ccccc1F)N(Cc1ccccc1)C1CC1 [compound 90] |
| 2 to 10 | 2 to 10 | > 10 | COc1cccc(CN(C(=O)c2cnc(N3CCOCC3)nc2-c2ccccc2F)C(C)C)c1 [compound 74] |
| 2 to 10 | < 2 | 2 to 10 | CC(C)N(Cc1ccccc1)C(=O)c1cnc(N2CCCCC2)nc1-c1ccccc1F [compound 117] |
| 2 to 10 | 2 to 10 | > 10 | O=C(NCCOc1ccccc1)c1cnc(N2CCOCC2)nc1-c1ccc(Oc2ccccc2)cc1 [compound 121] |
| 2 to 10 | < 2 | > 10 | CC(C)N(C(=O)c1cnc(N2CCCCC2)nc1-c1ccccc1F)c1ccc2c(c1)OCO2 [compound 70] |
| 2 to 10 | 2 to 10 | > 10 | CC(C)N(Cc1ccccc1)C(=O)c1cnc(N2Cc3ccccc3C2)nc1-c1ccccc1F [compound 130] |
| 2 to 10 | 2 to 10 | > 10 | CC(C)N(C(=O)c1cnc(N2CCCCC2)nc1-c1ccccc1F)c1cccc([N+](=O)[O-])c1 [compound 140] |
| 2 to 10 | 2 to 10 | > 10 | O=C(c1cnc(N2CCOCC2)nc1-c1ccccc1F)N(Cc1ccccc1)C1CCCCC1 [compound 64] |
| 2 to 10 | 2 to 10 | > 10 | O=C(c1cnc(N2CCSCC2)nc1-c1ccccc1F)N(Cc1ccccc1)C1CC1 [compound 109] |
